Data: patent publication US6911470B1, “Polyoxometalate compounds as antiviral agents” (priority 1988, dated 2005)
Several values for one entry are separate records, joined by “and”; a condition that tells them apart may be missing. Equal entries are not always repeated. Where two headings read alike, the source gives them in different places.

Columns and labels:
HIV-1 (strain LAV-1) = assay: microbe, parasite or virus in culture; format: cell-based
Procedure: Cells. Human peripheral blood mononuclear cells (PBMC) from healthy HIV-1 seronegative and hepatitis B virus seronegative donors were isolated by Ficoll-Hypaque discontinuous gradient centrifugation at 1,000×g for 30 minutes, washed twice in phosphate-buffered saline (pH 7.2; PBS), and pelleted at 300×g for 10 minutes. Before infection, the cells were stimulated by phytohemagglutinin (PHA) at a concentration of 6 μg/ml for three days in RPMI 1640 medium supplemented with 15% heat-inactivated fetal calf serum, 1.5 mM L-glutamine, penicillin (100 U/ml), streptomycin (100 μg/ml), and 4mM sodium bicarbonate buffer.
Viruses. HIV-1 (strain LAV-1) was obtained from Dr. P. Feorino (Centers for Disease Control, Atlanta, Ga.). The virus was propagated in human PBMC using RPMI 1640 medium, as described previously (McDougal et al, J. Immun. Meth. 76, 171-183, 1985) without PHA and supplemented with 7% v/v interleukin-2 (Advanced Biotechnologies, Silver Spring, Md.), 7 μg/ml DEAE-dextran (Pharmacia, Uppsala, Sweden), and 370 U/ml anti-human leucocyte (alpha) interferon (ICN, Lisle, Ill.). Virus obtained from cell-free culture supernatant was titrated and stored in aliquots at −80° C. until use.
Inhibition of virus replication in human PBMC. Uninfected PHA-stimulated human PBMC were uniformly distributed among 25 cm^2 flasks to give a 5 ml suspension containing about 2×10^6 cells/ml. Suitable dilutions of virus were added to infect the cultures. The mean reverse transcriptase (RT) activity of the inocula was 50,000 decompositions per min/ml corresponding to about 100 TCID50, as determined by Groopman et al. (Groopman et al, AIDS Res. Human Retro. 3, 71-85, 1987. The drugs at twice their final concentrations in 5 ml of RPMI 1640 medium, supplemented as described above, were added to the cultures. Uninfected and untreated PBMC at equivalent cell densities were grown in parallel as controls. The cultures were maintained in a humidified 5% CO2-95% air incubator at 37° C. for six days after infection, at which point all cultures were sampled for supernatant reverse transcriptase (RT) activity.
RT activity assay. Six ml supernatant from each culture was clarified from cells at 300×g for 10 minutes. Virus particles were pelleted from 5 ml samples at 40,000 rpm for 30 minutes using a Beckman 70.1 Ti rotor and suspended in 200 μl of virus disrupting buffer (50 mM Tris-Cl, pH 7.8, 800 mM NaCl, 20% glycerol, 0.5 mM phenylmethyl sulfonyl fluoride, and 0.5% Triton X-100).
The RT assay was performed in 96-well microtiter plates, as described by Spira et al. (Spira et al, J. Clin. Microbiol. 22, 97-99, 1987). The reaction mixture, which contained 50 mM Tris-Cl pH 7.8, 9 mM MgCl2, 5 mM dithiothreitol (DTT), 4.7 μg/ml (rA)n. (dT)12-18, 140 μM dATP, and 0.22 μM [^3H]TTP, specific activity 78.0 Ci/mmol, equivalent to 17,300 cpm/pmol; NEN Research Products, Boston, Mass., was added to each well. The sample (20 μl) was added to the reaction mixture which was then incubated at 37° C. for 2 hours. The reaction was terminated by the addition of 100 μl 10% trichloroacetic acid (TCA) containing 0.45 mM sodium pyrophosphate. The acid-insoluble nucleic acids which precipitated were collected on glass filters using a Skatron semi-automatic harvester. The filters were washed with 5% TCA and 70% ethanol, dried, and placed in scintillation vials. Four ml of scintillation fluid (Econofluor, NEN Research Products, Boston, Mass.) were added and the amount of radioactivity in each sample was determined using a Packard Tri-Carb liquid scintillation analyzer (model 2,000CA). The results were expressed in dpm/ml of original clarified supernatant.
Median-effect method. Dose-effect relationships were analyzed by the median-effect equation (Chou et al, Adv. Enz. Regul. 22, 27-55, 1984).

HSV-2 = assay: Plaque reduction assay for herpes simplex viruses in Vero cells; format: cell-based, herpes simplex virus type 2; conditions: Table 2, read-out: EC-50 HSV-2
Procedure: Cell culture assays for heroes simplex viruses. Mycoplasma-free Vero cells, obtained from Flow Laboratory (McLean, Va.), were used for the plaque assays. The methodologies for the plaque reduction and cytotoxicity assays have been previously described (Schinazi et al, Antimicrob. Agents Chemother. 22, 499-507, 1982). Median-effect method. Dose-effect relationships were analyzed by the median-effect equation (Chou et al, Adv. Enz. Regul. 22, 27-55, 1984). The slope (m) and median effective and inhibitory concentration (EC50 and IC50) values were obtained by using a computer program developed by Chou and Chou (Chou et al, Elsevier-Biosoft, Elsevier Science Publishers, Cambridge, U.K., 1985).

Vero cells = assay: Cytotoxicity assay in Vero cells; format: cell-based; conditions: for IC50: Table 2, >100 μM = Nontoxic, read-out: IC50 Toxicity Vero Cells; for Toxicity Vero Cells, percent at given concentration: 100 μM
Excerpt: Cell culture assays for heroes simplex viruses. Mycoplasma-free Vero cells, obtained from Flow Laboratory (McLean, Va.), were used for the plaque assays. The methodologies for the plaque reduction and cytotoxicity assays have been previously described (Schinazi et al, Antimicrob. Agents Chemother. 22, 499-507, 1982).

human PBM cells = assay: Cytotoxicity assay on uninfected PHA stimulated human PBMC (trypan blue); format: cell-based
How it was run: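 Uninfected PHA-stimulated human PBMC at 2×10^5 cells/ml were cultured with or without drug for 6 days. Viability was counted by trypan blue exclusion on a hemacytometer. IC50 was derived by the median-effect method.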

[1] = Table 2, several values per cell, some in brackets, read-out: EC-50 HIV-1 (LAV-1)
[2] = Table 2, >100 μM = Nontoxic, read-out: IC50 Toxicity PBM Cells
[3] = Table 1, read-out: EC50 Anti-HIV-1 Activity in Human PBM Cells
[4] = Table 1, read-out: IC50 Toxicity in Human PBM Cells

Compound	EC50 (HIV-1 (strain LAV-1); [1])	EC50 (HSV-2) [µM]	IC50 (Vero cells) [µM]	EC50 (HIV-1 (strain LAV-1); [3]) [µM]	IC50 (human PBM cells; [4]) [µM]	other results
Cc1cn([C@H]2C[C@H](N=[N+]=[N-])[C@@H](CO)O2)c(=O)[nH]c1=O [Formula 22, 3′-azido-3′-deoxythymidine, reference compound]	–	–	–	–	–	EC50 (HIV-1 (strain LAV-1); Human immunodeficiency virus 1, PBMC, Table 1, read-out: EC50 Anti-HIV-1 Activity in Human PBM Cells): 0.004 µM; EC50 (HIV-1 (strain LAV-1); Human immunodeficiency virus 1, PBMC, Table 2, several values per cell, some in brackets, read-out: EC-50 HIV-1 (LAV-1)): 0.00308 µM; EC50 (HSV-2; Human alphaherpesvirus 2, Vero): > 100 µM; IC50 (Vero cells; Chlorocebus sabaeus, Vero): 29 µM; IC50 (human PBM cells; Homo sapiens, PBMC, Table 1, read-out: IC50 Toxicity in Human PBM Cells): > 100 µM; IC50 (human PBM cells; Homo sapiens, PBMC, Table 2, >100 μM = Nontoxic, read-out: IC50 Toxicity PBM Cells): > 100 µM
(ArgH^+)m(H^+)4-mST, where m=1-4 [(ARGH^+)nH^+(4−n)ST]	1.03 µM and 0.77 µM	< 1	> 100	–	–	IC50 (human PBM cells; [2]): > 100 µM
(Me4N)4W10O32 [Formula 19]	3.05 µM and 3.3 µM	8.78	> 100	3.1	> 100	–
(NH4)4W10O32 [Formula 18]	–	9.7	> 100	1.8	115	IC50 (human PBM cells; [2]): > 100 µM
(NH4)6P2W18O62 [Formula 14]	0.91 µM	0.24	–	0.91	1.8	Toxicity Vero Cells, percent at given concentration (Vero cells): 83%,; Toxicity PBM Cells, percent at given concentration (human PBM cells; 100 μM): 76%,
H3PW12O40 [Formula 2]	14 µM	18.7	10	14	> 100	–
H4SiW12O40 [Formula 3]	–	1.5	80	0.12	> 200	EC50 (HIV-1 (strain LAV-1); Table 2, several values per cell, some in brackets, listed as α and β H4ST, read-out: EC-50 HIV-1 (LAV-1)): 0.12 µM and 0.21 µM; therapeutic index in human PBM cells (HIV-1 (strain LAV-1); from Table 1 EC50 and IC50): highest
H5BW12O40 [Formula 4]	–	–	85	0.46	126	Toxicity PBM Cells, percent at given concentration (human PBM cells; 200 μM): 76%,
H6P2W18O62 [Formula 13]	0.52 µM	0.18	–	0.52	6.2	Toxicity Vero Cells, percent at given concentration (Vero cells): 81.9%,; Toxicity PBM Cells, percent at given concentration (human PBM cells; 100 μM): 90%,
